{"source": "patent US20260183396A1", "about": "“CXCR3 OVEREXPRESSION IN CAR-NK CELLS PRIMES MIGRATION/HOMING INTO THE TUMOR MICROENVIRONMENT” (DANA-FARBER CANCER INSTITUTE, INC., priority 2022, published 2026)", "key": {"MPM tumor cell lines": {"tested_on": "MPM tumor cell lines", "experiment": "3D vascular model of NK cell migration", "format": "cell-based, human", "conditions": "presence and absence of the vascular barrier", "method": "3D vascular model. To generate the tumor-vascular model, H226 spheroids were mixed with collagen rat tail hydrogel (2.5 mg/ml) and injected into the center gel region of the 3D microfluidic chamber (10-15 μL per each microfluidic chamber). After incubation for 30 minutes at 37° C. in sterile humidity chambers, the side wall of one flanked channel (media channel) was coated with a 150 μg/ml collagen solution in PBS to allow for better adhesion of eCs to the channel. After 15 mins, the channel was washed once with media. To create the 3D vessel, 25 μL cell suspension of 3×10^6 cells/ml human umbilical vein endothelial cells (HUVECs; C2519AS, Lonza) were injected in the media channel coated with collagen. The channel was rotated twice to create a confluent hollow-lumen 3D vessel. To allow the cells to attach to the media-gel interface and form a monolayer, the chip was incubated with cells face down for 15 mins. Next, 50 μL cell suspension was reinjected, and the chip was flipped to cover the upper part of the 3D vascular channel. After 90 mins of incubation in the humidity chamber at 37° C., cell culture media was gently added to both channels and further incubated to form a confluent monolayer. After vessel formation, NK cells (labelled with cell tracker) were added to the 3D vessel at 2:1 E:T ratio. […] NK cell migration+/−vessel was quantified at 24 hours. Image capture and analysis was performed using a fluorescence confocal microscope and processing software. The 3D vascular channels were rinsed in PBS and fixed with 4% PFA for 15 min at room temperature. Cell membranes were permeabilized with 0.1% Triton X-100 for 5 min at room temperature and washed twice with PBS. HUVEC cells were stained for F-actin with green phalloidin (Thermo Fisher Scientific A12379) and Hoechst 33342. Images were captured on a Nikon Eclipse 80i fluorescence microscope equipped with Z-stack (Prior) and CoolSNAP CCD camera (Roper Scientific)."}, "H226 MPM cells": {"tested_on": "H226 MPM cells", "experiment": "NK cell migration assay towards H226 spheroids", "format": "cell-based, human", "method": "NK cell infiltration assay. Immune cell infiltration was assessed as previously described (Kitajima et al., Cancer Discov. 9:34-45 (2019); Mahadevan et al., Cancer Discov. 11:1952-1969 (2021)). Briefly, mesothelioma cancer cell spheroids (H2591, H2461, H226) were generated by seeding 5×10^5 cells in suspension in a ULA dish for 24 hours. […] Samples were then pelleted and resuspended in type I rat tail collagen (Corning) at a concentration of 2.5 mg/mL following the addition of 10×PBS with phenol red and pH adjustment using NaOH. pH 7.0-7.5 was confirmed using PANPEHA Whatman paper (Sigma-Aldrich). Cells and collagen were kept on ice to prevent polymerization. The spheroid-collagen suspension was then injected into the central gel region of the 3D DAX-1 microfluidic cell culture chip (AIM Biotech). Microfluidic devices were utilized as previously described (Aref et al., Lab Chip 18:3129-3143 (2018)), with a central region containing the cell-collagen mixture in a 3D microenvironment (3×10^4 cells H2591 and H2461, 2× 10^4 cells H226 in 10 μL), flanked by 2 media channels. After injection, collagen hydrogels containing cells were incubated for 40 minutes at 37° C. in humidity chambers, then hydrated with culture media, with labeled primary NK cells (ET ratio 2:1) added to one of the side channels. Primary NK cells were labeled with Cell Tracker Red (Thermo Fisher Scientific) following manufacturer's instructions. After 96 hours of incubation, viability staining of cancer cell spheroids and infiltrated immune cells was performed (20-minute incubation with 1 μg/mL solution of Propidium Iodide; Thermo Fisher Scientific). For the experiment with the CXCR3 neutralizing antibody (R&D MAB160), NK cells were pre-treated for 30 minutes prior to loading.\nFor quantification, images were captured on a Nikon Eclipse 80i fluorescence microscope equipped with Z-stack (Prior) and CoolSNAP CCD camera (Roper Scientific). Image capture and analysis was performed using NIS-Elements AR software package. Whole device images were achieved by stitching in multiple captures. Quantification of immune cell infiltration into the 3D tumor microenvironment was performed by measuring the total cell area of cell tracker dye in the entire gel region. For the experiment with the CXCR3 neutralizing antibody (R&D MAB160; FIG. 6B), staining was quantified in a square region in the center of the channel to focus on effects of CXCR3 ligands released by tumor cells. Percent dead cell quantification was performed as in PDOTS as described above.\nImmune cell migration assays were performed as previously described (Kitajima et al., Cancer Discov. 9:34-45 (2019)). […]"}, "NK cells": {"tested_on": "NK cells", "experiment": "Immune cell toxicity assays, NK cells", "format": "cell-based", "conditions": "72 hours of high dose exposure; regardless of IL-2 or co-culture with TILs", "method": "Immune Cell Toxicity Assays. […] Following treatment, samples were stained with anti-CD45, anti-CD3, anti-CD4, anti-CD8, and anti-CD56 antibodies (Table 1), as well as Zombie Green live/dead (Biolegend 423111) and analyzed by flow cytometry as described above. Data were analyzed using FlowJo software version 10.5.3. As an orthogonal measure of viability, CellTiter-Glo was performed on primary T-cells and NK cells.\nCellTiter-Glo luminescent cell viability assay. Cell viability was assessed using the CellTiter-Glo Luminescent Cell Viability assay (Promega, G7571) according to manufacturer's instructions. […] All conditions were tested in triplicate and plates were read on a Tecan Infinite Mplex Microplate Reader."}, "MPM cell lines": {"tested_on": "MPM cell lines", "experiment": "NK cell killing assay", "format": "cell-based, human", "conditions": "NK co-culture, only with MPM cells expressing STING", "method": "NK cell killing assay. Target cells (MPM cell lines) were detached via trypsinization, labelled with CellTrace Violet (CTV, LifeTechnologies) and then seeded in a 96-well plate at a cell density of 25,000 cells per well. […] After 6 hours of co-culture, the cells were harvested and incubated with an antibody for the apoptosis marker Annexin V (PE) and the live/dead stain 7-AAD (Biolegend). Cells were analyzed on a BD LSRFortessa with FACSDiva software (BD Biosciences). Data were analyzed using FlowJo software version 10.5.3. The apoptotic cells were evaluated by gating on the CTV+ population and represented as percentage live or dead (late apoptotic) cells. Apoptotic cell analysis was conducted using NK cells extracted from as many as 4 different healthy donors per target MPM cell line to incorporate baseline donor variability."}, "STING": {"tested_on": "STING", "experiment": "STING immunoblotting in NK cells and TILs", "format": "cell-based, human", "method": "Immunoblotting. […] Imaging of blots and was performed using the LI-COR Odyssey system."}}, "data": [{"compound": "Nc1ncnc2c1ncn2[C@@H]1O[C@@H]2COP(=O)([S-])O[C@@H]3[C@H](O)[C@@H](COP([O-])(=S)O[C@H]2[C@H]1O)O[C@H]3n1cnc2c(N)ncnc21.[Na+].[Na+]", "note": "(stereo partly drawn) [ADU-S100]", "values": [{"measurement": "NK cell migration", "setting": "MPM tumor cell lines", "result": "enhanced NK cell migration"}, {"measurement": "CAR-NK CXCR+ cell migration", "setting": "H226 MPM cells", "result": "increased"}, {"measurement": "CAR-NK control cell migration", "setting": "H226 MPM cells", "result": "did not affect"}, {"measurement": "migration of cNK cells", "setting": "H226 MPM cells", "result": "increased migration"}, {"measurement": "migration of cNK overexpressing CXCR3", "setting": "H226 MPM cells", "result": "decreased migration"}, {"measurement": "cytotoxicity in human NK cells", "setting": "NK cells", "result": "no significant cytotoxicity"}, {"measurement": "apoptosis of tumor cells", "setting": "MPM cell lines", "result": "enhanced"}, {"measurement": "time within which STING was degraded", "setting": "STING; NK cells", "result": "3 to 6", "unit": "h"}, {"measurement": "T-cell STING degradation", "setting": "STING; T-cells, STING phosphorylated and activated", "result": "minimally degraded"}]}]}
